{"source": "patent US11612583B2", "about": "“Disease modifying methods for treating neurodegenerative diseases using nootropic agents” (priority 2018, dated 2023)", "key": {"[1]": {"tested_on": "primary cortical neurons treated with rotenone", "test": "Extracellular acidification rates (ECARs), proxy for glycolysis, in rotenone-treated primary cortical neurons", "format": "cell-based, mouse", "conditions": "after rotenone 65 nM 24 hours, 6.5 μM-8.5 μM, FIG. 3", "description": "Rotenone (1.26 mM stock, Sigma, Cat #R8875) was freshly prepared in water prior to each use. Stocks of rotenone were maintained in the dark at −20° C. for up to 6 months. […]\nThe extracellular acidification rates (ECARs), a proxy for glycolysis, were also assessed by using an XF24^e Extracellular Flux Analyzer in primary neurons."}, "PINK1-KO rats [2]": {"tested_on": "PINK1-KO rats", "test": "Hind limb grip strength in PINK1-KO rats", "format": "in vivo, rat", "conditions": "intraperitoneal Forskolin 1.6 mg/kg with or without Noopept 0.05 μg/kg; 10 days; post vs pre-treatment; FIG. 11", "description": "All experiments involving mice and rats were performed in accord with ARRIVE (Animal Research: Reporting of In Vivo Experiments) guidelines. Wild-type C57BL/6 and PINK1 knockout mice (B6.129S4-Pink1^tm1Slm/J), wild-type (Long Evans rats) and PINK1 knockout (LEH-PINK1^tm1sage.Park6) rats (SAGE labs through Horizon Discovery) were handled humanely and appropriately per the ARRIVE guidelines. All mice were housed at the Laboratory of Animal Resources (University of Nevada, Reno) in cages containing sufficient bedding, food (pellets), water, with sufficient social, nutritional and “enriched” environments, and maintained in HVAC-pressurized/sterile environment and in 12:12 hr light/dark cycles.\nWild-type (PINK1+/+) or PINK1 knockout (PINK1−/−) rats were treated with intraperitoneal injections of DMSO control or of Forskolin (1.6 mg/kg body weight) once every 2 days for two doses followed by co-administration with Noopept (0.05 μg/kg) for three more doses (once every two days) for up to a total treatment time of 10 days. […] In addition, muscle coordination and balance were assessed by subjecting the rats to cross a 1-meter, tapered beam balance (2 cm width) for up to three trials per animal. […]"}, "PINK1-KO rats [3]": {"tested_on": "PINK1-KO rats", "test": "Baseline oxygen consumption rates in midbrain slices of PINK1-KO rats", "format": "in vivo, rat", "conditions": "intraperitoneal Forskolin 1.6 mg/kg with or without Noopept 0.05 μg/kg; FIG. 12", "description": "Wild-type (PINK1+/+) or PINK1 knockout (PINK1−/−) rats were treated with intraperitoneal injections of DMSO control or of Forskolin (1.6 mg/kg body weight) once every 2 days for two doses followed by co-administration with Noopept (0.05 μg/kg) for three more doses (once every two days) for up to a total treatment time of 10 days. At the end of each treatment, a battery of motor tests were performed in vehicle-treated or WT and PINK1-KO rats treated with compounds to analyze for muscle strength in hind legs by using a grip strength analyzer. In addition, muscle coordination and balance were assessed by subjecting the rats to cross a 1-meter, tapered beam balance (2 cm width) for up to three trials per animal. Upon completing the behavioral tests, the rats were then transcardially perfused with phosphate buffered saline, and the brains were extracted, midbrain slices were generated by using a vibratome (brain slicer) at room temperature and maintained in artificial cerebral spinal fluid. The oxygen consumption rates were then measured by using an XF24^e Metabolic Analyzer to measure energy production in the brain (oxidative phosphorylation) as described in Example 1 but with the following modifications. […] The brain slices were analyzed for baseline respiration for five cycles with each cycle consisting of 3 min. of mixing, 3 min. of waiting and 2 min. of measuring OCRs."}, "[4]": {"tested_on": "primary cortical neurons treated with rotenone", "test": "Oxygen consumption rates (XF24e Extracellular Flux Analyzer) in rotenone-treated primary cortical neurons", "format": "cell-based, mouse", "description": "Rotenone (1.26 mM stock, Sigma, Cat #R8875) was freshly prepared in water prior to each use. Stocks of rotenone were maintained in the dark at −20° C. for up to 6 months. Rotenone was used at 65 μM for neuroblastoma cells and at 65 nM for primary cortical neurons for 4-6 hours to induce oxidative and autophagic stress.\nForskolin (Coleus forskohlii, >98% HPLC, Sigma Aldrich) was prepared in DMSO as 5 mg/ml stocks (stable for up to 6 months if kept in the dark and stored in −20° C. until ready to use). On the day of the experiment, the forskolin aliquot was thawed and cells were treated once with forskolin at a concentration of 1 to up to 10 μM of forskolin in complete media for treating primary cortical neurons or for intraperitoneal administration of PINK1 knockout mice or PINK1 knockout rats.\nRotenone-treated primary neurons were then exposed to 250 μM dibutyryl cyclic AMP (dbt-cAMP) or with the parental or water-soluble form (NKH477) of Forskolin (6.5 μM-8.5 μM, 24 hrs). The basal oxygen consumption rates (OCRs), a proxy for mitochondrial function, were analyzed by using an XF24^e Extracellular Flux Analyzer (Agilent Technologies). The maximal oxygen consumption rates (OCRs), a proxy for maximal buffering capacity of mitochondrial function, were also analyzed by using an XF24^e Extracellular Flux Analyzer in primary cortical neurons treated with 1 μM FCCP, an ionophore that acts as a mitochondrial uncoupler."}}, "note": "“Also recorded” adds a separate entry of the source."}
{"compound": "C=C[C@@]1(C)CC(=O)[C@]2(O)[C@@]3(C)[C@@H](O)CCC(C)(C)[C@@H]3[C@H](O)[C@H](OC(C)=O)[C@@]2(C)O1", "note": "[Forskolin]", "values": [{"measurement": "glycolysis (baseline ECARs)", "setting": "[1]", "result": "completely restored normal glycolytic function; also recorded: significantly restored"}, {"measurement": "hind limb muscle strength", "setting": "PINK1-KO rats [2]", "result": "can reverse the loss of hind limb strength; also recorded: can reverse the loss of muscle strength"}, {"measurement": "basal respiration / oxidative phosphorylation in the midbrain (baseline OCRs)", "setting": "PINK1-KO rats [3]", "result": "sufficient to reverse the loss in oxidative phosphorylation; also recorded: significantly restored basal respiration"}, {"measurement": "spare respiratory capacity (Maximal OCRs-Baseline OCRs)", "setting": "[4]; after rotenone 65 nM 24 hours, 6.5 μM-8.5 μM, 24 hrs, 1 μM FCCP, FIG. 2", "result": "completely restored; also recorded: significantly restored"}, {"measurement": "baseline mitochondrial respiration (basal OCRs)", "setting": "[4]; after rotenone 65 nM 24 hours, Forskolin or NKH477 6.5 μM-8.5 μM, 24 hrs, FIG. 1", "result": "partially or completely restored; also recorded: significantly restored"}, {"measurement": "protection against rotenone-mediated neurodegeneration", "setting": "[4]; concentrations of Forskolin greater than 12.5 μM", "result": "did not confer significant protection"}, {"measurement": "concentration of maximal effects on protection against loss of neuronal metabolism (oxidative phosphorylation and glycolysis)", "setting": "[4]; rotenone-treated primary neurons, bimodal", "result": "about 10 μM"}]}
